In paper PMC6934184, “Selective DNA-PKcs inhibition extends the therapeutic index of localized radiotherapy and chemotherapy” (The Journal of Clinical Investigation, 2019):

Molecular target: T1, PIK3CD/PIK3R1 (p110δ/p85α) (Homo sapiens, UniProt O00329)
T1 construct: purchased Thermo Fisher Scientific (Life Technologies) SelectScreen
Assay: SelectScreen Adapta
Format: biochemical
Conditions: ATP Km app
Method: The in vitro kinase selectivity of NU5455 was determined using the SelectScreen Broad Assay Panel (Thermo Fisher Scientific) involving activity and binding assays (Supplemental Table 1). […] Class IA PI3Ks were measured using the p85α subunit.
Kinase [ATP] % Assay Kinase [ATP] % Assay Kinase [ATP] % Assay Kinase [ATP] % Assay […]
SGK (SGK1) Km app 8.5 Z MAP4K2 (GCK) Km app 2.7 Z TLK2 n/a -0.3 L STK38 (NDR) n/a -5.9 L
MERTK (cMER) Km app 8.3 Z CDK2/cyclin A Km app 2.7 Z TGFBR1 (ALK5) n/a -0.4 L MATK (HYL) Km app -6.3 Z
FYN Km app 8.3 Z EPHA1 Km app 2.7 Z CLK3 Km app -0.5 Z ABL1 E255K Km app -6.6 Z
TEC n/a 8.1 L CDK2/cyclin E1 n/a 2.7 L MAP3K14 (NIK) n/a -0.5 L STK17A (DRAK1) n/a -6.6 L
KIT V654A n/a 8.1 L TESK2 n/a 2.7 L AKT3 (PKB gamma) Km app -0.5 Z JAK2 JH1 JH2 Km app -6.7 Z
ROS1 Km app 8.0 Z SPHK1 Km app 2.7 A MAP3K9 (MLK1) Km app -0.5 Z PRKACB (PRKAC beta) n/a -6.8 L
FGFR3 K650E Km app 7.9 Z AMPK A2/B1/G1 Km app 2.6 Z IKBKB (IKK beta) Km app -0.6 Z PDGFRA (PDGFR alpha) Km app -6.8 Z
RAF1 (cRAF) Y340D Y341D 100 7.9 Z DYRK3 Km app 2.6 Z CAMK2A (CaMKII alpha) Km app -0.6 Z NEK9 Km app -7.2 Z
PI4KA (PI4K alpha) 10 7.8 A CSNK1D (CK1 delta) Km app 2.6 Z PRKCB1 (PKC beta I) Km app -0.7 Z PDK1 Km app -7.3 Z
HIPK2 Km app 7.8 Z ACVR2A n/a 2.5 L TTK n/a -0.7 L RPS6KB1 (p70S6K) Km app -7.8 Z
CSK Km app 7.6 Z DDR2 T654M n/a 2.5 L ZAK n/a -0.7 L STK38L (NDR2) n/a -8.4 L
PRKCG (PKC gamma) Km app 7.6 Z JAK2 Km app 2.5 Z IKBKE (IKK epsilon) Km app -0.7 Z ABL1 G250E Km app -8.5 Z
SRMS (Srm) Km app 7.5 Z HIPK3 (YAK1) Km app 2.5 Z CAMK2G (CaMKII gamma) n/a -0.8 L PRKD1 (PKC mu) Km app -8.5 Z
YES1 Km app 7.4 Z AMPK (A1/B1/G2) n/a 2.4 L TLK1 n/a -0.8 L CDK5/p35 Km app -8.6 Z
RPS6KA5 (MSK1) Km app 7.4 Z MYO3B (MYO3 beta) n/a 2.3 L MAPK12 (p38 gamma) Km app -0.8 Z PDGFRA T674I Km app -8.9 Z
TNIK n/a 7.3 L PASK Km app 2.3 Z PRKCI (PKC iota) Km app -0.8 Z BLK Km app -8.9 Z
FER Km app 7.1 Z ACVRL1 (ALK1) n/a 2.3 L PKN2 (PRK2) n/a -1.0 L PRKD2 (PKD2) Km app -9.1 Z
CDK16 (PCTK1)/cyclin Y n/a 7.0 L EGFR (ErbB1) L861Q Km app 2.2 Z PIM1 Km app -1.0 Z CSNK1G2 (CK1 gamma 2) Km app -9.3 Z
MST4 Km app 6.9 Z RPS6KA3 (RSK2) Km app 2.1 Z CDK5/p25 Km app -1.1 Z ROCK1 Km app -9.5 Z
FLT1 (VEGFR1) Km app 6.5 Z STK23 (MSSK1) Km app 2.0 Z SRPK1 Km app -1.1 Z PRKCB2 (PKC beta II) Km app -9.6 Z
DYRK1A Km app 6.4 Z ALK R1275Q n/a 2.0 L BRSK1 (SAD1) Km app -1.1 Z CSNK1G1 (CK1 gamma 1) Km app -9.9 Z
PRKCD (PKC delta) Km app 6.2 Z TBK1 Km app 2.0 Z MAP3K3 (MEKK3) n/a -1.1 L ABL2 (Arg) Km app -10.3 Z
EGFR (ErbB1) Km app 6.0 Z ACVR1B (ALK4) Km app 2.0 Z AMPK A1/B1/G1 Km app -1.2 Z STK3 (MST2) Km app -10.3 Z
CDC7/DBF4 n/a 6.0 L CDK3/cyclin E1 n/a 1.9 L WNK3 n/a -1.2 L CAMK4 (CaMKIV) Km app -10.4 Z
JAK3 Km app 6.0 Z KDR (VEGFR2) Km app 1.8 Z LATS1 n/a -1.3 L MKNK1 (MNK1) Km app -10.7 Z
MAPK13 (p38 delta) Km app 5.8 Z ULK1 n/a 1.8 L DMPK n/a -1.5 L FLT3 ITD n/a -11.6 L
FRAP1 (mTOR) Km app 5.7 Z AURKB (Aurora B) Km app 1.7 Z CDK2/cyclin A1 n/a -1.6 L CHEK2 (CHK2) Km app -11.7 Z
KIT Y823D n/a 5.6 L LRRK2 Km app 1.7 A LIMK1 n/a -1.7 L LTK (TYK1) Km app -13.1 Z
ITK Km app 5.5 Z MAP2K3 (MEK3) n/a 1.6 L DYRK1B Km app -1.8 Z JAK2 JH1 JH2 V617F Km app -13.8 Z
KIT Km app 5.3 Z DAPK1 Km app 1.6 A DDR1 n/a -1.8 L EPHA8 Km app -13.8 Z
CDK7/cyclin H/MNAT1 Km app 5.3 A EPHA6 n/a 1.6 L BTK Km app -2.0 Z EGFR (ErbB1) T790M L858R Km app -14.1 Z
RET Km app 5.2 Z MAP4K1 (HPK1) n/a 1.6 L ADRBK1 (GRK2) Km app -2.0 Z MET M1250T Km app -14.5 Z […]

T1 sequence (O00329 whole entry): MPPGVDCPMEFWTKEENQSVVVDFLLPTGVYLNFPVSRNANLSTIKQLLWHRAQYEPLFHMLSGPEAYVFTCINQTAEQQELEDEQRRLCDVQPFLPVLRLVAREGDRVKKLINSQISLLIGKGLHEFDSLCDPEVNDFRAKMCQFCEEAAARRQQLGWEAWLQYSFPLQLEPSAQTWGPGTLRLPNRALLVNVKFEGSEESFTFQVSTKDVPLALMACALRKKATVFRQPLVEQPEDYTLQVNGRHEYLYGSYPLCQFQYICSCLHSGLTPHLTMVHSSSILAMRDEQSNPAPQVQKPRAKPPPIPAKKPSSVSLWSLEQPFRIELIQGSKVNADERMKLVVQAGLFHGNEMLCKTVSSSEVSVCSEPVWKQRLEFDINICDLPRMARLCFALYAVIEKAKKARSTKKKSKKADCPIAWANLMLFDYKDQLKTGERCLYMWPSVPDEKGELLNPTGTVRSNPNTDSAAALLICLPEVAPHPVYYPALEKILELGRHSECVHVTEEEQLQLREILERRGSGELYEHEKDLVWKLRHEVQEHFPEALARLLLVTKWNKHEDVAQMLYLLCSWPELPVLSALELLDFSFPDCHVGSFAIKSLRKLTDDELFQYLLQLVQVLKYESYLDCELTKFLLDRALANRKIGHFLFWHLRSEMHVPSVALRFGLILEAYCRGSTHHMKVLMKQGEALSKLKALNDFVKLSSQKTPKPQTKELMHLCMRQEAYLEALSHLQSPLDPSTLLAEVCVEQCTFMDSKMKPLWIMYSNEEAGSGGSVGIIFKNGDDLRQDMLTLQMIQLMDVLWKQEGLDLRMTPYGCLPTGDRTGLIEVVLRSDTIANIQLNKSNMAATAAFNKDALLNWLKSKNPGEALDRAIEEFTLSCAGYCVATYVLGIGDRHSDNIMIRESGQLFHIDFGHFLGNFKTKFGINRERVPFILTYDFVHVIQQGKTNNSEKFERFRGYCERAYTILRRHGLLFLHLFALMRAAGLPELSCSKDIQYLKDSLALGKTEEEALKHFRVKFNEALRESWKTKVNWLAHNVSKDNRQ
T1 sequence (P27986 whole entry partner): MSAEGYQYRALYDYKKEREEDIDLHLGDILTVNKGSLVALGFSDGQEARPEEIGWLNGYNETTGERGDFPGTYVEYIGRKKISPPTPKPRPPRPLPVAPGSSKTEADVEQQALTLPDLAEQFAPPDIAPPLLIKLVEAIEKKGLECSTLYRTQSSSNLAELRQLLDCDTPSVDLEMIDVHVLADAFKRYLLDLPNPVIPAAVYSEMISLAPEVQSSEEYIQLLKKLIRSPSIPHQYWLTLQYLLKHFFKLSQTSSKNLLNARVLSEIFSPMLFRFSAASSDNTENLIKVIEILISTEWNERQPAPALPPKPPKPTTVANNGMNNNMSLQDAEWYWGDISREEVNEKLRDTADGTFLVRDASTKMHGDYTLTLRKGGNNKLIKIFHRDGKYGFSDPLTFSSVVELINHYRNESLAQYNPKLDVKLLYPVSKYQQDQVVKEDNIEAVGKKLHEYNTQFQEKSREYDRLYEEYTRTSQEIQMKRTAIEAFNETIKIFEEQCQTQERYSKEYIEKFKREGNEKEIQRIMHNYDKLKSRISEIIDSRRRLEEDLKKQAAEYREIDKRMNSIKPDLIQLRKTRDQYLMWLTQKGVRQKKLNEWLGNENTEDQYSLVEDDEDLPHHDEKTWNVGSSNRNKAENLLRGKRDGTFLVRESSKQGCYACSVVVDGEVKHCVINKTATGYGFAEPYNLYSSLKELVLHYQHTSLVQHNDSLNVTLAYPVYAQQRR

CN(C(=O)CN1CCOCC1)c1ccc2sc3c(-c4cccc5c(=O)cc(N6CC7CCC(C6)O7)oc45)cccc3c2c1 [NU5455]
% inhibition (1 µM): 57% | inhibition at 1 µM: 57.5%
